Experiments:
[1] = Solubility (qualitative); assay type: physicochemical
[2] = tested on: Du-145 cells; assay: MTT cytotoxicity assay, Du-145; assay type: cell-based, human
Experimental: (§1) Moreover, to investigate the activity of synthesized complexes as potential anticancer agents, their cytotoxicity toward a series of human cancer cell lines and a non-cancer cell line (HaCaT) was evaluated using the MTT assay. […] In addition, we also determined the cytotoxic activity of free ligands toward selected cancer cells. […] However, this effect depends on the cell line. […] The best values of cytotoxic activity of compounds have been obtained after 72 h of cell incubation. Additionally, synthesized complexes had high sensitivity to A549 cells, so this cell line was selected as the research subject for antitumor activity.
(§2) MCF7 cell line (human breast adenocarcinoma, morphology: epithelial-like, ATCC: HTB-22) and A549 cell line (human lung adenocarcinoma, morphology: epithelial, ATCC: CCL-185); HaCaT (human keratinocyte) were cultured in Dulbecco’s Modified Eagle’s Medium (DMEM, Corning, Poland) with phenol red, supplemented with 10% fetal bovine serum (FBS) and with 1% streptomycin/penicillin. Du-145 cell line (human prostate carcinoma); derived from metastatic site: brain was cultured in minimum essential medium (MEM, Corning) with only 10% fetal bovine serum (FBS). Cultures were incubated at 37 °C under a humidified atmosphere containing 5% CO2. Cells were passaged using a solution containing 0.05% trypsin and 0.5 mM EDTA. All media and other ingredients were purchased from ALAB, Poland.
(§3) Since most of the studied compounds are insoluble in aqueous media (Dulbecco’s Modified Eagle’s Medium or minimum essential medium (MEM, Corning), therefore, they needed to be pre-dissolved in DMSO for biological tests. DMSO concentration was kept below 1% in each tested concentration of each compound. […] In brief, 5×10^3 per well (0.2 mL) in the two first approaches, while 1×10^4 cells in the case of longer incubation time were seeded in 96-well flat-bottom microtiter plate, were incubated with the tested complexes at various ranges of concentrations. […] Various compound concentrations (dilutions in proper medium supplemented with 1% FBS) were tested in five replicates and repeated at least three times. Determined values of IC50 (concentration of a drug required to inhibit the growth of 50% of the cells) are given as mean + S.D. (Standard Deviation). IC50 values were determined, from the plots of cell viability in the presence of various concentrations of each compound by matching dose–response curves and using the Origin 9.0 software. Furthermore, post-treatment survival assessment of the treated cells was analyzed under an inverted fluorescence microscope (Olympus IC51, Japan) with an excitation filter 470/20 nm. For this, cells were stained with two versatile fluorescence dyes: fluorescein diacetate (FDA, 5 mg/mL) and propidium iodide (PI, 5 mg/mL) in standard conditions in the dark for 20 min. Before visualization, dyes were removed and cells were washed with PBS twice.

[3] = tested on: A549 cells; assay: MTT cytotoxicity assay, A549; assay type: cell-based, human
[4] = tested on: PANC-1 cells; assay: MTT cytotoxicity assay, PANC-1; assay type: cell-based, human
[5] = tested on: MCF-7 cells; assay: MTT cytotoxicity assay, MCF-7; assay type: cell-based, human
Experimental: as §1, §2, §3

[6] = Partition coefficient, shake-flask method (n-octanol/PBS); assay type: physicochemical
Experimental: The partition coefficient was determined by the shake-flask method. A small amount of compound was dissolved in 5 mL PBS-saturated n-octanol. The sample was sonicated until all the compound was dissolved. Next, 5 mL of PBS saturated with n-octanol was added and the experiment proceeded as before. The resulting mixture was vortexed for 30 min in horizontal position. The sample was centrifuged for 2 min at 3700 rpm to obtain a phase separation. Next, 2 mL of each phase was taken. The next steps were a 5 min sonication and measurement of absorption spectra of the obtained solutions. The calibration curve was prepared in order to determine the concentration of the tested compounds in individual solutions. It was made using the absorption intensity of the compounds in series dilution solutions in PBS saturated with octanol or octanol saturated with PBS in the concentration range c = 1–100 nM.

[7] = tested on: HaCaT cells; assay: MTT cytotoxicity assay, HaCaT (non-cancer); assay type: cell-based, human
Experimental: as §1, §2
(§4) Since most of the studied compounds are insoluble in aqueous media (Dulbecco’s Modified Eagle’s Medium or minimum essential medium (MEM, Corning), therefore, they needed to be pre-dissolved in DMSO for biological tests. DMSO concentration was kept below 1% in each tested concentration of each compound. Cytotoxicity was assessed by MTT assay performed according to the protocols described previously in the following experimental approaches: 6 h + 24 h, 24 h + 24 h, and 72 h + 24 h. In brief, 5×10^3 per well (0.2 mL) in the two first approaches, while 1×10^4 cells in the case of longer incubation time were seeded in 96-well flat-bottom microtiter plate, were incubated with the tested complexes at various ranges of concentrations. After an appropriate incubation time of 6, 24, or 72 h, the cells were washed thee time with PBS and fresh medium was applied for a further 24 h in each approach. Various compound concentrations (dilutions in proper medium supplemented with 1% FBS) were tested in five replicates and repeated at least three times. Determined values of IC50 (concentration of a drug required to inhibit the growth of 50% of the cells) are given as mean + S.D. (Standard Deviation). IC50 values were determined, from the plots of cell viability in the presence of various concentrations of each compound by matching dose–response curves and using the Origin 9.0 software. Furthermore, post-treatment survival assessment of the treated cells was analyzed under an inverted fluorescence microscope (Olympus IC51, Japan) with an excitation filter 470/20 nm. For this, cells were stained with two versatile fluorescence dyes: fluorescein diacetate (FDA, 5 mg/mL) and propidium iodide (PI, 5 mg/mL) in standard conditions in the dark for 20 min. Before visualization, dyes were removed and cells were washed with PBS twice.

[8] = tested on: A549 cells; assay: MTT cytotoxicity assay, A549; assay type: cell-based, human; remark: listed apart in the source
Experimental: as §1, §2, §4

[9] = tested on: HaCaT cells; assay: MTT cytotoxicity assay, HaCaT (non-cancer); assay type: cell-based, human; conditions: 48 h
[10] = tested on: PANC-1 cells; assay: MTT cytotoxicity assay, PANC-1; assay type: cell-based, human; remark: listed apart in the source
Experimental: as §1, §4

[11] = Stability towards atmospheric oxygen (UV-Vis); assay type: physicochemical
Experimental: Oxidation of copper(I) to copper(II) was observed within 12 h using UV-Vis spectroscopy (Figure 1) that was additionally conformed by color of the copper(I) inorganic compound solution changing from transparent to green. Additionally, oxidation of phosphines ligands (1, 2) was observed. It is worth mentioning that copper(I) ions can easily undergo oxidation processes. The instability of copper(I) complexes prevented us from evaluating their biological activity.

Row | Compound | solubility in mixture of H2O:DMSO (100:1) [1] | IC50 ([2]; 24 h) [µM] | IC50 ([2]; 48 h) [µM] | IC50 ([2]; 72 h) [µM] | IC50 ([3]; 48 h) [µM] | IC50 ([4]; 48 h) [µM] | IC50 ([5]; 24 h) [µM] | IC50 ([5]; 48 h) [µM] | IC50 ([5]; 72 h) [µM] | IC50 ([7]; 24 h) [µM] | IC50 ([7]; 72 h) [µM] | IC50 ([8]; 24 h) [µM] | IC50 ([8]; 72 h) [µM] | IC50 [9] [µM] | IC50 ([10]; 24 h) [µM] | IC50 ([10]; 72 h) [µM] | IC50 ([2]; Homo sapiens, DU-145, 72 h) [µM] | IC50 ([3]; Homo sapiens, A549, 48 h) [µM] | IC50 ([5]; Homo sapiens, MCF7, 48 h) [µM] | IC50 ([5]; Homo sapiens, MCF7, 72 h) [µM] | further results
1 | CC#N.CC#N.CCN(CC)CP(c1ccccc1)c1ccccc1.CCN(CC)CP(c1ccccc1)c1ccccc1.F[B-](F)(F)F.[Cu+] [1c, [Cu(NCCH3)2(Ph2PCH2N(CH2CH3)2)2]^+BF4^−] | well soluble |  |  |  |  |  |  |  |  |  |  |  |  |  |  |  |  |  |  |  | 
2 | CCCCN(CCCC)C[P+](c1ccccc1)(c1ccccc1)[Ir-3]([Cl])([Cl])[C]1(C)C(C)=C(C)C(C)=C1C [2a, Ir(η^5-Cp*)Cl2Ph2PCH2N(CH2CH2CH2CH3)2] |  | 69 ± 6 | 69 ± 8 | 13 ± 2 | 61 ± 3 | 198 ± 20 | 125 ± 15 | 189 ± 20 | 56 ± 6 | 559 ± 25 | 302 ± 22 | 79 ± 6 | 16 ± 3 | 420 ± 12 | 106 ± 5 | 85 ± 16 |  |  |  |  | Experimental LogP (logPo/w) [6]: 4.0
3 | CC#N.CC#N.CCCCN(CCCC)CP(c1ccccc1)c1ccccc1.CCCCN(CCCC)CP(c1ccccc1)c1ccccc1.F[B-](F)(F)F.[Cu+] [2c, [Cu(NCCH3)2(Ph2PCH2N(CH2CH2CH2CH3)2)2]^+BF4^−] | well soluble |  |  |  |  |  |  |  |  |  |  |  |  |  |  |  |  |  |  |  | 
4 | N.N.[Cl][Pt][Cl] [Cisplatin, reference compound] |  | 85 ± 7 | 81 ± 8 | 50 ± 2 | 66 ± 9 | 131 ± 7 | 176 ± 5 | 151 ± 6 | 64 ± 4 | 400 ± 3 | 102 ± 2 | 70 ± 8 | 11 ± 3 | 362 ± 4 | 166 ± 20 | 79 ± 5 |  |  |  |  | 
5 | CCN(CC)CP(c1ccccc1)c1ccccc1 [compound 1, Ph2PCH2N(CH2CH3)2] |  |  |  |  |  |  |  |  |  |  |  |  |  |  |  |  | 86 ± 6 | 47 ± 5 | 149 ± 13 | 192 ± 20 | IC50 ([2]; Homo sapiens, DU-145, 24 h): 203 ± 19 µM; IC50 ([5]; Homo sapiens, MCF7, 24 h): 458 ± 11 µM; IC50 ([7]; Homo sapiens, HaCaT, 24 h): 646 ± 20 µM; IC50 ([7]; Homo sapiens, HaCaT, 72 h): 490 ± 12 µM; IC50 ([8]; Homo sapiens, A549, 24 h): 620 ± 9 µM; IC50 ([8]; Homo sapiens, A549, 72 h): 183 ± 12 µM; solubility in H2O [1]: moderately; IC50 ([9]; Homo sapiens, HaCaT): 458 ± 20 µM; sensitivity to oxidation in solution [11]: extremely sensitive to oxidation in solution; IC50 ([10]; Homo sapiens, PANC-1, 24 h): 426 ± 7 µM; IC50 ([10]; Homo sapiens, PANC-1, 72 h): 185 ± 12 µM
6 | CCCCN(CCCC)CP(c1ccccc1)c1ccccc1 [compound 2, Ph2PCH2N(CH2CH2CH2CH3)2] |  |  |  |  |  |  |  |  |  |  |  |  |  |  |  |  | 57 ± 4 | 72 ± 6 | 125 ± 20 | 285 ± 11 | IC50 ([2]; Homo sapiens, DU-145, 24 h): 185 ± 12 µM; IC50 ([2]; Homo sapiens, DU-145, 48 h): 54 ± 8 µM; IC50 ([4]; Homo sapiens, PANC-1, 48 h): 158 ± 23 µM; IC50 ([5]; Homo sapiens, MCF7, 24 h): 355 ± 13 µM; IC50 ([7]; Homo sapiens, HaCaT, 24 h): 556 ± 13 µM; IC50 ([7]; Homo sapiens, HaCaT, 72 h): 448 ± 25 µM; IC50 ([8]; Homo sapiens, A549, 24 h): 569 ± 11 µM; IC50 ([8]; Homo sapiens, A549, 72 h): 158 ± 11 µM; solubility in H2O [1]: moderately; IC50 ([9]; Homo sapiens, HaCaT): 420 ± 11 µM; sensitivity to oxidation in solution [11]: extremely sensitive to oxidation in solution; IC50 ([10]; Homo sapiens, PANC-1, 24 h): 386 ± 6 µM; IC50 ([10]; Homo sapiens, PANC-1, 72 h): 142 ± 20 µM
7 | CCCCNCCCC [dibutylamine] |  |  |  |  |  |  |  |  |  |  |  |  |  |  |  |  | > 1000 | 387 ± 25 | 226 ± 20 | > 1000 | IC50 ([2]; Homo sapiens, DU-145, 48 h): 103 ± 7 µM; IC50 ([4]; Homo sapiens, PANC-1, 48 h): 258 ± 6 µM; IC50 ([7]; Homo sapiens, HaCaT, 72 h): > 1000 µM; IC50 ([8]; Homo sapiens, A549, 72 h): > 1000 µM; IC50 ([9]; Homo sapiens, HaCaT): 445 ± 25 µM; IC50 ([10]; Homo sapiens, PANC-1, 72 h): > 1000 µM
8 | CCNCC [diethylamine] |  |  | 126 ± 12 | > 1000 | 425 ± 38 | 305 ± 13 |  | 352 ± 25 | > 1000 |  | > 1000 |  | > 1000 | 545 ± 33 |  | > 1000 |  |  |  |  | 
9 | Ru(η^6-p-cymene)Cl2Ph2PCH2N(CH2CH2CH2CH3)2 [2b] | well soluble | 102 ± 6 | 103 ± 7 | 17 ± 3 | 387 ± 25 | 258 ± 6 | 226 ± 20 | 226 ± 20 | 121 ± 20 | 545 ± 13 | 347 ± 25 | 81 ± 4 | 14 ± 2 | 445 ± 25 | 126 ± 6 | 112 ± 18 |  |  |  |  | Experimental LogP (logPo/w) [6]: 3.84

— publication PMC8876511, “Two out of Three Musketeers Fight against Cancer: Synthesis, Physicochemical, and Biological Properties of Phosphino Cu^I, Ru^II, Ir^III Complexes” (Pharmaceuticals, 2022)
